Values of other authors as cited in patent publication US20100105640A1, “Aromatase Inhibitors for Emergency Contraception” (priority 2005, published 2010).

Details: Yuzpe n = 979, Levonorgestrel n = 977

Percent with symptom (95% confidence interval): Breast tenderness: 10.8%
Percent with symptom (95% confidence interval): Dizziness: 11.2%
Percent with symptom (95% confidence interval): Fatigue: 16.9%
Percent with symptom (95% confidence interval): Headache: 16.8%
Percent with symptom (95% confidence interval): Low abdominal pain: 17.6%
Percent with symptom (95% confidence interval): Nausea: 23.1%
Percent with symptom (95% confidence interval): Vomiting: 5.6%
SMILES: C#C[C@]1(O)CC[C@H]2[C@@H]3CCC4=CC(=O)CC[C@@H]4[C@H]3CC[C@@]21CC [Levonorgestrel, levonorgestrel]
Percent with symptom (95% confidence interval): All other adverse effects (mostly diarrhea and some irregular bleeding or spotting): 13.5%
